Data set [1] deals with human lung carcinoma cells H157. Put plainly: MTT cytotoxicity assay, 72 h, H157. In kind it is cell-based. The settings on record: MTT test, mean ± SD. From the text:
(§1) Human breast (MCF-7), lung (H157), pancreatic (PSN-1) and colon (HCT-15 and LoVo) carcinoma cell lines were obtained from the American Type Culture Collection (ATCC, Rockville, MD). A431 are human cervical carcinoma cells kindly provided by Prof. F. Zunino (Molecular Pharmacology Unit, Experimental Oncology and Molecular Medicine, Istituto Nazionale dei Tumori, Milan, Italy). […] G. Marverti (Dept. of Biomedical Science, University of Modena, Italy).
(§2) Briefly, depending upon the growth characteristics of the cell line, 3-8×10^3 cells well^−1, were seeded in 96-well microplates in growth medium (100 μL) and then incubated at 37° C. in a 5% carbon dioxide atmosphere. After 24 h, the medium was removed and replaced with a fresh one containing the compound to be studied, at the appropriate concentration, dissolved in 0.9% sodium chloride solution just before use. Triplicate cultures were established for each treatment. After 72 h, each well was treated with 10 μL of a 5 mg mL^−1 MTT saline solution and, after 5 h of incubation, 100 μL of a sodium dodecylsulfate (SDS) solution in 0.01 M HCl were added. After an overnight incubation, the inhibition of cell growth induced by the tested complexes was determined by measuring the absorbance of each well at 570 nm using a Bio-Rad 680 microplate reader. Mean absorbance for each drug dose was expressed as percentage of the control and plotted vs. drug concentration. Dose-response curves were fitted and IC50 values were calculated with four parameter logistic model (4PL).
(§3) The cytotoxicity was evaluated by means of the MTT test for 72 h treatment with increasing concentrations of the tested compounds.
(§4) Cytotoxic activity was examined against a panel of human tumor cell lines. […] The growth inhibitory effect was evaluated by means of MTT test. Cells (5-8×10^3 mL^−1, depending on the growth characteristics of the cell line) were treated for 72 h with increasing concentrations of tested compounds. […] SD=standard deviation, -=not detected.

Data set [2] deals with human colon carcinoma cells HCT-15. Put plainly: MTT cytotoxicity assay, 72 h, HCT-15. It is filed as cell-based. Conditions: MTT test, mean ± SD.
From the text: as §1, §2, §3, §4

Data set [3] deals with human ovarian cancer cells 2008. The experiment in a line: MTT cytotoxicity assay, 72 h, 2008.
From the text: as §1, §2, §3, §4, §3, §4

Data set [4] concerns human pancreatic carcinoma cells PSN-1. The experiment in a line: MTT cytotoxicity assay, 72 h, PSN-1. In kind it is cell-based. The settings on record: MTT test, mean ± SD.
From the text: as §1, §2, §3, §4

Data set [5] relates to human breast carcinoma cells MCF-7. Put plainly: MTT cytotoxicity assay, 72 h, MCF-7. In kind it is cell-based. The settings on record: MTT test, mean ± SD.
From the text: as §1, §2, §3, §4

Data set [6] deals with human cervical carcinoma cells A431. The experiment in a line: MTT cytotoxicity assay, 72 h, A431. In kind it is cell-based. Conditions: MTT test, mean ± SD.
From the text: as §1, §2, §3, §4

In another data set the test system is LoVo MDR cells. Put plainly: MTT cytotoxicity assay, 72 h, LoVo MDR (multidrug resistant). It is filed as cell-based, human. Conditions: MTT test, mean ± SD.
From the text: as §1, §2
(§5) A LoVo cell line retaining a multidrug resistance phenotype was also considered (LoVo MDR). Cross-resistance profiles were evaluated by means of the resistance factor (RF), which is defined as the ratio between the IC50 value for the resistant cells and that arising from the sensitive cells (Table 3).
Cells (5×10^3 mL-1) were treated for 72 h with increasing concentrations of tested compounds. Cytotoxicity was assessed by MTT test. […] Resistant Factor (in brackets) is defined as IC50 resistant/parent line. […]

The test system of data set [7] is human colon cancer cells LoVo. Put plainly: MTT cytotoxicity assay, 72 h, LoVo. It is filed as cell-based. The settings on record: MTT test, mean ± SD. As for the experimental part:
Triplicate cultures were established for each treatment.
. A LoVo cell line retaining a multidrug resistance phenotype was also considered (LoVo MDR). Cross-resistance profiles were evaluated by means of the resistance factor (RF), which is defined as the ratio between the IC50 value for the resistant cells and that arising from the sensitive cells (Table 3).
Cytotoxicity was assessed by MTT test. […]. Resistant Factor (in brackets) is defined as IC50 resistant/parent line.

For data set [8], the system named is murine Lewis lung carcinoma (LLC). The experiment in a line: In vivo anticancer activity toward Lewis lung carcinoma. Further details: species or system C57BL mice. Conditions: daily i.p. from day 9, measured at day 15, 6: 5 mg kg^−1, 9: 3 mg kg^−1, cisplatin: 1.5 mg kg^−1. The protocol:
The mice were purchased from Charles River, Italy, housed in steel cages under controlled environmental conditions (constant temperature, humidity, and 12 h dark/light cycle), and alimented with commercial standard feed and tap water ad libitum. Animals were observed daily, and body weight and food intake recorded. The Lewis lung carcinoma (LLC) cell line was purchased from ECACC, UK. The LLC cell line was maintained in D-MEM (Euroclone) supplemented with 10% heat-inactivated FBS (Euroclone), 10 mM L-glutamine, 100 U mL^−1 penicillin, and 100 μg mL^−1 streptomycin in a 5% CO2 air incubator at 37° C. […] At day 15, animals were sacrificed, the legs were amputated at the proximal end of the femur, and the inhibition of tumor growth was determined according to the difference in weight of the tumor-bearing leg and the healthy leg of the animals expressed as % referred to the control animals. Body weight was measured every two days and was taken as a parameter for systemic toxicity. All the values are the means±S.D. of not less than three measurements. Multiple comparisons were made by Tukey-Kramer test (** p<0.01; * p or °p<0.05).
For the assessment of the adverse side effects, changes in body weights of tumor-bearing mice were monitored daily (FIG. 1).
Starting from day 9 after tumor implantation, tested compounds were daily administered i.p. At day 15, mice were sacrified and tumor growth was detected as described above.

The next data set concerns LoVo-OXP cells. The experiment in a line: MTT cytotoxicity assay, 72 h, LoVo-OXP (oxaliplatin resistant). It is filed as cell-based, human. Conditions: MTT test, mean ± SD.
From the text: as §1, §2, §5
Cells (5×10^3 mL-1) were treated for 72 h with increasing concentrations of tested compounds. Cytotoxicity was assessed by MTT test. […] Resistant Factor (in brackets) is defined as IC50 resistant/parent line.

The mark [9] stands for this setting: read-out: IC50 2008, MTT test, mean ± SD, Table 1.
Where [10] appears, read: read-out: IC50 2008, MTT test, mean ± SD, Table 2.

Where two headings read alike, the source gives them in different places. Marks after values point to notes of the source that are not given here.

Take “Bis[tris(N-methylpiperazineN′- methyl)phosphine]copper(I) tetrafluoroborate [Compound 5]”: the IC50 is 4.3 ± 1.2 µM in data set [1], 8 ± 2.6 µM in [2], 5.2 ± 1.7 µM in data set [3] (setting [9]) and 7.3 ± 1.4 µM in data set [4].

As to “Bis[tris(4- methoxyphenyl)phosphine] copper(I) nitrate [Compound 3]”, the IC50 amounted to 1.3 ± 0.4 µM in data set [5]; 1.2 ± 0.01 µM in [1]; 0.3 ± 0.2 µM in data set [2]; 0.5 ± 0.1 µM in data set [3] (setting [9]); 3.1 ± 1.1 µM in [6]; 0.9 ± 0.2 µM with LoVo MDR cells.

Consider `COc1ccccc1P(c1ccccc1)c1ccccc1.COc1ccccc1P(c1ccccc1)c1ccccc1.F[B-](F)(F)F.[Cu+]` [Compound 11, Bis[diphenyl(2-methoxyphenyl)phosphine] copper(I)tetrafluoroborate], for which the “cytotoxicity against human ovarian cancer cells compared with cisplatin and oxaliplatin” value in [3] (2008 cells, MTT) is “the most cytotoxic derivative”. The IC50 in data set [3] (setting [10]) is 0.4 ± 0.3 µM.

Regarding “Bis[tris(N-EthylpiperazineN′- methyl)phosphine]copper(I) tetrafluoroborate [Compound 6]”, the IC50 in data set [5] came out at 3.1 ± 0.9 µM; in data set [1] it was 3.8 ± 0.3 µM; in data set [2], 2.5 ± 0.1 µM; in data set [7], 0.7 ± 0.3 µM; in data set [3] (setting [9]), 14.5 ± 1.2 µM; in data set [4], 13.3 ± 3.2 µM. Further, the figures for the IC50 (in [6]; with LoVo MDR cells; with LoVo-OXP cells) were 7.7 ± 0.5 µM, 1.2 ± 0.9 µM and 1.3 ± 0.5 µM, respectively. The “Average tumor weight (mean ± SD, g)” value in [8] is 0.142 ± 0.09** g. Further, the “Inhibition of tumor growth (%)” value in [8] (referred to control animals) came to 75.9%.

Turning to `F[B-](F)(F)F.O=S(=O)(O)c1ccccc1P(c1ccccc1)c1ccccc1.O=S(=O)(O)c1ccccc1P(c1ccccc1)c1ccccc1.[Cu+]` [Compound 14, Bis[2-(diphenylphosphino]benzenesulfonic acid]copper(I) tetrafluoroborate], in data set [3] (setting [10]), the IC50 was 0.8 ± 0.2 µM.

Turning to `COc1cccc2c1C(=O)c1c(O)c3c(c(O)c1C2=O)C[C@@](O)(C(=O)CO)C[C@@H]3O[C@H]1C[C@H](N)[C@H](O)[C@H](C)O1` [doxorubicin, reference compound], the IC50 in [7] (Homo sapiens, LoVo) turned out to be 1.1 ± 0.5 µM; in the data set with LoVo MDR cells (Homo sapiens, LoVo), 19.4 ± 2.2 µM.

For “Bis[tris(4- methylphenyl)phosphine] copper(I) nitrate [Compound 2]”, the IC50 in data set [5] came to 3.1 ± 0.6 µM; in [1], 3.4 ± 0.2 µM; in [2], 0.5 ± 0.2 µM; in [7], 1.4 ± 0.1 µM; in data set [3] (setting [9]), 1.3 ± 0.3 µM; in data set [4], 0.3 ± 0.08 µM. Besides, the 50% inhibitory concentration (IC50) amounted to 3 ± 1.4 µM in data set [6], 0.9 ± 0.6 µM with LoVo MDR cells and 1.3 ± 0.5 µM with LoVo-OXP cells.

On to `COCOc1ccccc1P(c1ccccc1)c1ccccc1.COCOc1ccccc1P(c1ccccc1)c1ccccc1.F[B-](F)(F)F.[Cu+]` [Compound 13, Bis[diphenyl(2-(methoxymethoxy)phenyl)phosphine] copper(I)tetrafluoroborate], for which, in data set [3] (setting [10]), the 50% inhibitory concentration (IC50) amounted to 1.5 ± 0.4 µM.

“Bis[tris(morpholineN- methyl)phosphine]copper(I) tetrafluoroborate [Compound 7]”: the IC50 in data set [5] came out at 6.1 ± 1.5 µM; in [1] it was 8.4 ± 1.8 µM; in data set [2], 6.4 ± 0.5 µM; in data set [7], 0.6 ± 0.3 µM; in data set [3] (setting [9]), 9.2 ± 1 µM; in [4], 12.3 ± 1.5 µM. In addition, the IC50 was determined as 15 ± 2.2 µM in [6], 0.4 ± 0.3 µM in the data set on LoVo MDR cells and 0.4 ± 0.2 µM with LoVo-OXP cells.

As for `F[B-](F)(F)F.O=C(O)c1ccccc1P(c1ccccc1)c1ccccc1.O=C(O)c1ccccc1P(c1ccccc1)c1ccccc1.[Cu+]` [Compound 10, Bis[2-(diphenylphosphanyl)benzoic acid]copper(I) tetrafluoroborate], the IC50 in data set [5] worked out at 1.1 ± 0.2 µM; in data set [1], 0.9 ± 0.1 µM; in data set [2], 1.8 ± 0.6 µM; in data set [7], 1.5 ± 0.4 µM; in [3] (setting [9]) it was 0.3 ± 0.1 µM; in [4], 0.6 ± 0.01 µM. The 50% inhibitory concentration (IC50) in data set [6] amounted to 3.8 ± 1.1 µM; with LoVo MDR cells, 0.9 ± 0.4 µM; in the data set on LoVo-OXP cells, 0.09 ± 0.03 µM.

On to `F[B-](F)(F)F.Oc1ccccc1P(c1ccccc1)c1ccccc1.Oc1ccccc1P(c1ccccc1)c1ccccc1.[Cu+]` [Compound 12, Bis[diphenyl(2-hydroxyphenyl)phosphine] copper(I)tetrafluoroborate], for which the 50% inhibitory concentration (IC50) in data set [3] (setting [10]) was 1.1 ± 0.3 µM.

As to `O=C1[O][Pt]2([NH][C@@H]3CCCC[C@H]3[NH]2)[O]C1=O` [oxaliplatin, cyclohexane-1,2-diamineethanedioatoplatinum(II), reference compound], the concentration for half-maximal inhibition (IC50) stood at 3.4 ± 1.2 µM in data set [5]; 11.8 ± 3.2 µM in data set [1]; 1.3 ± 0.3 µM in [2]; 3.1 ± 0.3 µM in data set [7]; 1.7 ± 1 µM in data set [3] (setting [9]); 1.7 ± 1 µM in [3] (setting [10]). Also, the IC50 in data set [4] amounted to 16.1 ± 2.5 µM; in data set [6] it was 3.7 ± 1 µM; in the data set on LoVo MDR cells, 1.4 ± 0.8 µM; in the data set on LoVo-OXP cells, 17.5 ± 1.8 µM.

On to “Bis[tris(thiomorpholineN- methyl)phosphine]copper(I) tetrafluoroborate [Compound 8]”, for which the IC50 was determined as 5.3 ± 1.2 µM in data set [1], 10.2 ± 0.1 µM in data set [2], 11.9 ± 0.1 µM in data set [3] (setting [9]) and 7.7 ± 1.3 µM in data set [4].

On to “Bis[tris(phenylphosphine)] copper(I) nitrate [Compound 1]”, for which the IC50 in data set [5] came to 1.9 ± 0.7 µM; in data set [1], 1.6 ± 0.1 µM; in data set [2], 1.8 ± 0.8 µM; in data set [7], 0.4 ± 0.03 µM; in data set [3] (setting [9]) it was 2.2 ± 0.1 µM; in [4], 4.5 ± 1.8 µM. The IC50 in data set [6] is 0.2 ± 0.01 µM; in the data set on LoVo MDR cells, 0.5 ± 0.2 µM; in the data set with LoVo-OXP cells it was 0.3 ± 0.1 µM.

In the case of “Bis[tris(4- fluorophenyl)phosphine] copper(I) nitrate [Compound 4]”, the IC50 in data set [5] was 1.4 ± 0.3 µM; in data set [1], 0.9 ± 0.1 µM; in data set [2], 1.1 ± 0.5 µM; in [7], 0.9 ± 0.3 µM; in [3] (setting [9]), 1.9 ± 0.5 µM; in data set [4], 6.2 ± 0.9 µM. The results for the IC50 (in data set [6]; with LoVo MDR cells; in the data set on LoVo-OXP cells) were 0.8 ± 0.6 µM, 1 ± 0.1 µM and 0.7 ± 0.1 µM, respectively.

Values taken from patent publication US20240239814A1, “Complexes Of CU(I) As Antitumor Agents” (priority 2021, published 2024).
